# Measurements reported in patent US20160213742A1, “COMPOSITIONS AND METHODS FOR THE TREATMENT OF FUNGAL INFECTIONS” (priority 2013, published 2016).
# “Also recorded” adds a separate entry of the source.
# Experiments:
# Format in all cases: cell-based
# [1] = system: Neutrophils purified from human peripheral blood; assay: Human Neutrophil Transwell Migration Assay; conditions: 37° C., 45 minutes, % of the maximum migration possible
# In short: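 Neutrophils (~50,000–100,000) were placed above 5-micron transwell inserts with test compound in the lower chamber and allowed to migrate 45 min at 37° C. Migrated cells were quantified by ATP luminescence; medium-only background was subtracted and values expressed as % of cells added directly to the bottom well.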
# [2] = system: Aspergillus fumigatus strain AF293; assay: Microfluidic Aspergillus fumigatus Killing Assay with human neutrophils; conditions: for percent hyphal growth compared to remaining conidia (FIG. 2): with added neutrophils (NFs), Compound 1, Compound 11, caspofungin acetate 10 nM, fMLP 100 nM, hyphae by 18 hours; for timecourse of A. fumigatus (Af) growth in FCCs (FIG. 4): in presence of PMNs, three healthy blood donors, t=0, 8, and 16 hours
# Description: Microfluidic devices used to measure leukocyte migration in response to Aspergillus fumigatus with or without drug (Compound 1 or Compound 11), antifungal control (caspofungin acetate) and/or chemoattractant (fMLP) were manufactured using known microfabrication techniques. Two layers of photoresist (SU8; Microchem), the first one 10 μm thin (corresponding to the migration channels) and the second one 70 μm thick, corresponding to the focal chemotactic chambers (FCCs) were patterned on one silicon wafer sequentially using two photolithographic masks and processing cycles according to the instructions from the manufacturer. The wafer with patterned photoresist was used as a mold to produce polydimethylsiloxane (PDMS) (Fisher Scientific) devices, which were then bonded to the base of glass-bottom 12- or 24-well plates, using an oxygen plasma machine (Nordson-March).
# Aspergillus fumigatus strain AF293 expressing either cytosolic red fluorescent protein (RFP) or green fluorescent protein (GFP) was grown on Sabouraud dextrose agar plates supplemented with 100 μg/mL ampicillin at 30° C. for 3-4 days. Conidia were harvested by gentle scraping followed by washing in ice-cold phosphate buffered saline (PBS) three times. Conidia were immediately used or stored at 4° C. for use within one week.
# De-identified, fresh human blood samples from healthy volunteers, aged 18 years and older, who were not receiving immunosuppressants, were purchased from Research Blood Components, LLC. Peripheral blood was drawn in tubes containing a final concentration of 5 mM EDTA (Vacutainer; Becton Dickinson) and processed within 2 h of blood collection. Using a sterile technique, neutrophils were isolated from whole blood using HetaSep followed by the EasySep Human Neutrophil Enrichment Kit ([…] Technologies) following the manufacturer's protocol. The purity of neutrophils was assessed to be >98% using the Sysmex KX-21N Hematology Analyzer (Sysmex America, Inc.). White blood cells were isolated using Hetasep followed by a 5 min spin down and wash with 1×PBS. White blood cells were stained with Hoechst (32.4 μM) (Sigma) following the manufacture's protocols. The final aliquots of white blood cells were resuspended in RPMI plus 10% fetal bovine serum (FBS−stock 50 mL FBS/450 mL RPMI) (Sigma-Aldrich) at a concentration of 20,000 cells/2 μL and kept at 37° C. Cells were then immediately introduced into the microfluidic device for the chemotaxis and Aspergillus fumigatus killing assay. All experiments were repeated at least three times with neutrophils or white blood cells from three different healthy donors.
# Immediately after bonding to the well plate, donut-shaped devices were filled with Aspergillus fumigatus conidia at a concentration of 10^6 cells/mL with or without either Compound 1 or Compound 11 [10 nM], caspofungin acetate [10 nM] and/or a solution of the chemoattractant N-formyl-methionyl-leucyl-phenylalanine (fMLP) [100 nM](Sigma-Aldrich, St. Louis, Mo.). The device was then placed in a vacuum for 15 min. The solution filled all of the FCCs as the air was displaced. The devices were then vigorously washed five times with 1×PBS to remove any residual Aspergillus fumigatus conidia, drug or chemoattractant that was outside of the FCCs. The device was then submerged in 0.5 mL of cell media. Neutrophils or white blood cells (20,000 cells/2 μL) were then pipetted into the cell loading chamber (CLC) using a gel-loading pipette tip. Neutrophil migration into the migration channel toward the FCC started immediately and was recorded using time-lapse imaging on a fully automated Nikon TiE microscope (10× magnification) with biochamber heated to 37° C. with 5% carbon dioxide gas. Image analysis of cell migration counts and fungi growth was analyzed by hand using Image J software.
# Image analysis of cell migration counts and fungi growth was analyzed by hand using Image J software.
# C. albicans ATCC 90028 = conditions: C. albicans ATCC 90028; read at 50% growth inhibition for echinocandins (24 h), 100% for amphotericin B (48 h)
# Method: (§1) MIC and MEC assays were run as described in Example 31 with the following exceptions. Starting solutions of all antifungal agents were prepared in 100% DMSO. Stock concentrations were made at 50× the highest final assay concentration and serially diluted 2-fold, 16 times in a 96-well PCR plate (VWR 83007-374). Candida and Aspergillus suspensions from Sabouraud dextrose agar plate cultures were prepared in 0.85% saline at 0.5 McFarland standard (˜0.1 OD530 nm). Candida suspensions were diluted 1:500 in RPMI (MP Biomedicals, cat no. 1060124; buffered with MOPS and adjusted with NaOH to pH 7.0) to a concentration of ˜0.5-2.5×10^3 CFU/mL and Aspergillus suspensions were diluted 1:50 in RPMI to 0.4-5×10^4 CFU/mL final concentration. 98 μL of each cell suspension in RPMI were added to test wells in a 96-well assay plate (Costar cat. no. 3370). A Beckman Multimek 96 liquid handling robot was used to dispense 2 μL of each 50× stock compound into the plate containing 98 μL of each strain in RPMI (2% final solvent concentration). Plates were shaken then incubated at 35° C. for 24-48 h prior to reading. MIC values were read visually at 50% growth inhibition for echinocandins (24 h) and at 100% growth inhibition for amphotericin B (48 h). MEC values (24 h) were read with the aid of a microscope at the lowest echinocandin concentration where rounded/compact hyphal morphology was observed.
# A. flavus ATCC MYA-3631 = assay: MEC assay (Example 32); conditions: MEC values (24 h), rounded/compact hyphal morphology
# Method: as §1
# A. fumigatus ATCC 13073 = assay: MEC assay (Example 32); conditions: MEC values (24 h), rounded/compact hyphal morphology
# Method: as §1
# A. fumigatus MYA-3626 = assay: MEC assay (Example 32); conditions: MEC values (24 h), rounded/compact hyphal morphology
# Method: as §1
# A. fumigatus MYA-4609 = assay: MEC assay (Example 32); conditions: MEC values (24 h), rounded/compact hyphal morphology
# Method: as §1
# A. niger ATCC 16404 = assay: MEC assay (Example 32); conditions: MEC values (24 h), rounded/compact hyphal morphology
# Method: as §1
Molecule,% Neutrophil Migration ([1]; conc 0.001 μg/mL) [%],% Neutrophil Migration ([1]; conc 0.01 μg/mL) [%],% Neutrophil Migration ([1]; conc 0.1 μg/mL) [%],% Neutrophil Migration ([1]; conc 1 μg/mL) [%],% Neutrophil Migration ([1]; conc 10 μg/mL) [%],percent hyphal growth compared to remaining conidia (FIG. 2) [2],timecourse of A. fumigatus (Af) growth in FCCs (FIG. 4) [2],MIC (C. albicans ATCC 90028) [µg/mL],MEC (A. flavus ATCC MYA-3631) [µg/mL],MEC (A. fumigatus ATCC 13073) [µg/mL],MEC (A. fumigatus MYA-3626) [µg/mL],MEC (A. fumigatus MYA-4609) [µg/mL],MEC (A. niger ATCC 16404) [µg/mL]
CC[C@H](C)C[C@H](C)CCCCCCCCC(=O)N[C@H]1C[C@@H](O)[C@@H](NCCN)NC(=O)[C@@H]2[C@@H](O)CCN2C(=O)[C@H]([C@H](O)CCNC(=O)[C@H](Cc2ccccc2)NC(=O)[C@H](CC(C)C)NC(=O)[C@H](CCSC)NC=O)NC(=O)[C@H]([C@H](O)[C@@H](O)c2ccc(O)cc2)NC(=O)[C@@H]2C[C@@H](O)CN2C(=O)[C@H]([C@@H](C)O)NC1=O [Compound 1],−4.7,67.9,70.7,−10.6,−11.2,inhibition of Aspergillus fumigatus hyphal growth; also recorded: able to suppress hyphal growth,–,–,–,–,–,–,–
CC[C@H](C)C[C@H](C)CCCCCCCCC(=O)N[C@H]1C[C@@H](O)[C@@H](OCCN)NC(=O)[C@@H]2[C@@H](O)CCN2C(=O)[C@H]([C@H](O)CCNC(=O)[C@H](Cc2ccccc2)NC(=O)[C@H](CC(C)C)NC(=O)[C@H](CCSC)NC=O)NC(=O)[C@H]([C@H](O)[C@@H](O)c2ccc(O)cc2)NC(=O)[C@@H]2C[C@@H](O)CN2C(=O)[C@H]([C@@H](C)O)NC1=O [Compound 11],−4.7,80.3,28.3,−8.0,−10.9,inhibition of Aspergillus fumigatus hyphal growth; also recorded: able to suppress hyphal growth,inhibition of growth of Af,–,–,–,–,–,–
caspofungin acetate [reference compound],–,–,–,–,–,–,growth of Af,0.125,0.06,0.03,0.06,0.06,0.06
